{
  "source": "patent US20170152285A1",
  "about": "“EXTRACTING METHOD OF KUGUACIN, PHARMACEUTICAL COMPOSITION COMPRISING THE KUGUACIN AND USE THEREOF” (priority 2015, published 2017)",
  "key": {"IL-8": {"system": "IL-8", "assay": "Anti-inflammatory activity assay, IL-8 ELISA, THP-1 co-cultured with P. gingivalis", "assay_type": "cell-based, Human", "conditions": "for inhibiting the expression of IL-8 induced by P. gingivalis: 1 μM to 5 μM, dose-dependent", "protocol": "(§1) P. gingivalis (ATCC 33277/BCRC 14417) purchased from Bioresource Collection and Research Center of Food Industry Research and Development Institute in Hsinchu. P. gingivalis was incubated with TSB medium in an anaerobic incubator at 37° C. in an atmosphere of 86% of N2, 10% of CO2 and 4% of H2. The TSB medium comprises 15 g of Tryptic Soy broth (Becton, Dicksinson and company, U.S.A.), 2.5 g of yeast extract, 0.5 mL of Hemin and 0.1 mL of Vitamin K dissolved in 500 mL of deionized H2O.\n(§2) THP-1 cell line (2×10^6 cells/mL) cultured by the method described in Example 3 was placed into a 96-well plate, and then 100 μL of RPMI medium without P. gingivalis was added or 0.1% dimethyl sulfoxide (DMSO) containing P. gingivalis with its multiplicity of infection (MOI) of 10 was added as negative controls. Different concentrations of samples from Examples 1 and 2 were added or luteolin (10 μM) was added as positive control. After co-culturing in an incubator at 37° C. in 5% of CO2 for 24 hours, the supernatants were collected. Then, the levels of IL-6 and IL-8 were analyzed by commercial ELISA kits for IL-6 and IL-8 (Invitrogen).\n(§3) The term “MOI” is multiplicity of infection which means the number of the bacteria infecting each cell (the number of bacteria/the number of cells). For example, MOI=1 refers to every cell was infected by one bacterial colony."}, "IL-6 [1]": {"system": "IL-6", "assay": "Anti-inflammatory activity assay, IL-6 ELISA, THP-1 co-cultured with P. gingivalis", "assay_type": "cell-based, Human", "conditions": "for inhibiting the expression of IL-6 induced by P. gingivalis: 1 μM to 5 μM, dose-dependent", "protocol": "as §1, §2, §3"}, "ERK": {"system": "ERK", "assay": "Western blot of phosphorylated ERK in THP-1 induced by P. gingivalis", "assay_type": "cell-based, Human", "conditions": "10 μM and 20 μM, induced by P. gingivalis for 30 mins", "protocol": "(§4) To analyze the effect of the M. charantia extract on phosphorylation of MAPK proteins, THP-1 cell line cultured by the method described in Example 3 (2×10^6 cells/mL) was inoculated in 6-cm petridishes. Every 200 μL of cell culture was added 800 μL of fresh media containing DMSO with P. gingivalis (MOI=10), different concentrations of samples from Examples 1 and 2 or luteolin ([…]) and then co-cultured in a incubator at 37° C. in 5% of CO2 for 30 mins. Next, the cells were collected and centrifuged to remove the supernatant. After adding phosphate buffer solution (PBS), the collected cells were shook and washed repeatedly for 3 times. Then 100 μL of 1× lysis buffer was added in. The mixture was centrifuged at 12,000 rpm and 4° C. for 15 mins, and the supernatant was collected. The protein was quantified to the identical concentration. After protein electrophoresis was conducted, Western blot was conducted to analyze the level of phosphorylated ERK, JNK and p38 (i.e. p-ERK, p-JNK and p-p38)."}, "p-ERK, p-JNK and p-p38": {"system": "p-ERK, p-JNK and p-p38", "assay": "Western blot of phosphorylated MAPK proteins in THP-1 induced by P. gingivalis", "assay_type": "cell-based, Human", "conditions": "1 μM to 5 μM, induced by P. gingivalis for 30 mins, dose-dependent", "protocol": "as §4"}, "IL-6 [2]": {"system": "IL-6", "assay": "Periodontitis mouse model, IL-6 mRNA in gum tissue", "assay_type": "in vivo, C57BL/6 mice", "conditions": "5 μg injected into gum tissue, day 14", "protocol": "(§5) To assess the effect of kuguacin on anti-inflammation in vivo, 6-week old C57BL/6 male mice were used in the present embodiment. The mice were purchased from Laboratory Animal Center of National Taiwan University, and fed with commercial chow diet and drinking water. After free access of food for 7 days, the mice were grouped for experiments, five animals for each group.\n(§6) The concentration of P. gingivalis was adjusted to 1×10^9 CFU/mL by steriled PBS, then centrifuged at 10,000 rpm for 5 min. After removing the supernatant, the pellet was heated in water bath at 80° C. for 30 mins.\n(§7) According to the method provided in the reference by Molon et al. to establish animal experiment model. Heat-killed P. gingivalis was injected into the gum tissue of C57BL/6 mice to cause inflammation. The mice were anesthetized by ethylether. Samples and bacteria solution were withdrawn using 0.3-mL insulin syringe needle. 10 μL of bacteria and samples were injected into the gum tissue of the mice. If blisters appeared, the injection was successful. […]\n(§8) After sacrificing the mice at the 14th day of the experiment, the gums of lower jaw of the mice were sampled and the gene expressions of COX-2, IL-6 and TNF-α therein were analyzed."}, "COX-2": {"system": "COX-2", "assay": "Periodontitis mouse model, COX-2 mRNA in gum tissue", "assay_type": "in vivo, C57BL/6 mice", "conditions": "5 μg injected into gum tissue, day 14", "protocol": "as §5, §6, §7, §8"}, "TNF-α": {"system": "TNF-α", "assay": "Periodontitis mouse model, TNF-α mRNA in gum tissue", "assay_type": "in vivo, C57BL/6 mice", "conditions": "5 μg injected into gum tissue, day 14", "protocol": "as §5, §6, §7, §8"}, "iNOS": {"system": "iNOS", "assay": "Periodontitis mouse model, iNOS mRNA in gum tissue", "assay_type": "in vivo, C57BL/6 mice", "conditions": "injected into gum tissue with P. gingivalis, day 14"}},
  "data": [
    {"smiles": "C=C(C)/C=C/C[C@@H](C)[C@H]1CC[C@@]2(C)[C@@H]3C=C[C@@]45O[C@@H](O)[C@]3(CC[C@]12C)[C@@H]4CC[C@H](O)C5(C)C", "note": "[fraction 532, 5β,19-epoxycucurbita-6,23(E),25(26)-triene-3β,19(R)-diol]", "values": [
      {"measurement": "inhibiting the expression of IL-8 by THP-1 cell line", "setting": "IL-8; 5 μM to 20 μM", "value": "effective on inhibiting"},
      {"measurement": "inhibiting the expression of IL-6 by THP-1 cell line", "setting": "IL-6 [1]; 5 μM to 20 μM", "value": "effective on inhibiting"},
      {"measurement": "inhibiting the phosphorylation of ERK", "setting": "ERK", "value": "effective in inhibiting"}
    ]},
    {"smiles": "CC(CC=CC(C)(C)O)C1CCC2(C)C3C=CC45OC(O)C3(CCC12C)C4CCC(O)C5(C)C", "note": "(centres unmarked) [fraction 5211, 5,19-epoxycucurbita-6,23-diene-3,19,25-triol]", "values": [
      {"measurement": "inhibiting the expression of IL-8 induced by P. gingivalis", "setting": "IL-8", "value": "effective on inhibiting"},
      {"measurement": "inhibiting the expression of IL-6 induced by P. gingivalis", "setting": "IL-6 [1]", "value": "effective on inhibiting"},
      {"measurement": "phosphorylation of the signal transduction proteins (p-ERK, p-JNK, p-p38) in THP-1 cells", "setting": "p-ERK, p-JNK and p-p38", "value": "reduced"},
      {"measurement": "mRNA expression of IL-6 in gum tissue, compared to group induced by P. gingivalis as 100%", "setting": "IL-6 [2]", "value": 34, "unit": "%"},
      {"measurement": "mRNA expression of COX-2 in gum tissue, compared to group induced by P. gingivalis as 100%", "setting": "COX-2", "value": 31, "unit": "%"},
      {"measurement": "mRNA expression of TNF-α in gum tissue, compared to group induced by P. gingivalis as 100%", "setting": "TNF-α", "value": 40, "unit": "%"},
      {"measurement": "mRNA expression of iNOS in gum tissue", "setting": "iNOS", "value": "increase"}
    ]},
    {"smiles": "C[C@H](C/C=C/C(C)(C)O)[C@H]1CC[C@@]2(C)[C@@H]3[C@@H](O)C=C4[C@@H](CC[C@H](O)C4(C)C)[C@]3(C=O)CC[C@]12C", "note": "[fraction 5212, 3,7,25-trihydroxycucurbita-5,23-dien-19-al]", "values": [
      {"measurement": "inhibiting the expression of IL-8 induced by P. gingivalis", "setting": "IL-8", "value": "effective on inhibiting"},
      {"measurement": "inhibiting the expression of IL-6 induced by P. gingivalis", "setting": "IL-6 [1]", "value": "effective on inhibiting"},
      {"measurement": "phosphorylation of the signal transduction proteins (p-ERK, p-JNK, p-p38) in THP-1 cells", "setting": "p-ERK, p-JNK and p-p38", "value": "reduced"},
      {"measurement": "mRNA expression of IL-6 in gum tissue, compared to group induced by P. gingivalis as 100%", "setting": "IL-6 [2]", "value": 67, "unit": "%"},
      {"measurement": "mRNA expression of COX-2 in gum tissue, compared to group induced by P. gingivalis as 100%", "setting": "COX-2", "value": 49, "unit": "%"},
      {"measurement": "mRNA expression of TNF-α in gum tissue, compared to group induced by P. gingivalis as 100%", "setting": "TNF-α", "value": 67, "unit": "%"},
      {"measurement": "mRNA expression of iNOS in gum tissue", "setting": "iNOS", "value": "increase"}
    ]}
  ]
}
